This note sets out measurements from patent publication US20250333394A1, “Tiparp Inhibitor Compounds” (AbbVie Inc., priority 2024, published 2025).

The structures appear in SMILES notation. pEC50: −log10 of the molar value.

The test system of one assay is NCI-H1373 tumors. As to the kind of experiment: NCI-H1373 xenograft tumor model efficacy. The assay is classed as in vivo, mouse. Particulars: PO BID for 14 days, SCID-beige mice. As to the method:
The human xenograft line NCI-H1373 was obtained from ATCC (American Type Culture Collection, Manassas, Virginia, USA). A suspension of 5×10^6 cells in culture medium mixed with Matrigel® (Corning Life Sciences, Lowell, MA, USA; 1:1, volume:volume) was injected subcutaneously in the right hind flank of female SCID-beige mice to generate tumor formation. Treatment started when the size of the flank tumors was approximately 120 mm^3. The TIPARP inhibition activity of Example 1 was evaluated by dosing five separate treatment groups with vehicle and four different doses of Example 1, administered twice a day (BID) for 14 days. Each administration consisted of a 0.2 mL PO dose in a vehicle formulation (10% ethanol, 30% PEG300, and 60% PHOSAL® 50).

A further assay relates to DLD-1 parent cells. As to the kind of experiment: CellTiter-Glo DLD-1 parent cell assay. The format is cell-based. The following applies: Homo sapiens, 144 h, 6 days, read-out: DLD-1 CTG EC50. The method, boiled down: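 DLD-1 parent (500 cells/well) and DLD-1 BRCA2 (−/−) (1200 cells/well) cells in RPMI 1640 with 10% FBS exposed to compounds at 30 μM to 0.5 nM (3-fold dilutions) for 6 days at 37° C. Viability read by CellTiter-Glo luminescence on day 7.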

Another assay has as its system NCI-H1373 cells. As to the kind of experiment: NCI-H1373 CellTiter-Glo cell assay for TIPARP inhibition. The assay is classed as cell-based, human. Particulars: Homo sapiens, NCI-H1373, 144 h; 6 days, 100 nM 10-Cl-BBQ in medium; read-out: NCI-H1373 CTG EC50. The method, boiled down:
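NCI-H1373 cells (1000/well) grown in RPMI 1640 with 10% FBS and 100 nM 10-Cl-BBQ, exposed to compounds from 30 μM to 0.5 nM final in 3-fold steps for 6 days at 37° C. Cell number read on day 7 by CellTiter-Glo luminescence.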
(In ATP-based viability assays light output follows the ATP content of the culture.)

The next assay has as its system MC-38 (Ker) tumors. As to the kind of experiment: MC-38 (Ker) syngeneic model efficacy. The format is in vivo, mouse. The following applies: PO once daily up to 21 days, C57BL/6 mice. As to the method:
The murine cell line MC-38 derived from C57BL6 murine colon adenocarcinoma cells was obtained from Kerafast (Boston, MA, USA). A suspension of 2.5×10^5 cells in culture medium mixed with Matrigel® (Corning Life Sciences, Lowell, MA, USA; 1:1, volume:volume) was injected subcutaneously in the right hind flank of female C57BL/6 mice to generate tumor formation. Treatment started when the size of the flank tumors was approximately 120 mm^3. Vehicle and four different doses of Example 1 were administered once daily to each of eight mice at each dose level for up to 21 days. Each administration consisted of a single 0.2 mL oral (PO) dose in a vehicle formulation (10% ethanol, 30% PEG300, and 60% PHOSAL® 50 PG).

Consider `C[C@@H]1CN(c2ncc(C(F)(F)F)cn2)CCN1C(=O)[C@H]1C[C@@H](c2c[nH]c(=O)c(C(F)(F)F)c2)C1` [Example 1, 5-[(1S,3s)-3-{(2R)-2-methyl-4-[5-(trifluoromethyl)pyrimidin-2-yl]piperazine-1-carbonyl}cyclobutyl]-3-(trifluoromethyl)pyridin-2(1H)-one], for which the TGIMax with NCI-H1373 tumors (Dose A) was found to be 26%; in the assay on NCI-H1373 tumors (Dose B), 46%; with NCI-H1373 tumors (Dose C), 73%; with NCI-H1373 tumors (Dose D) it was 92%. The negative logarithm of the EC50 (pEC50) (as a rule, the negative decadic logarithm of the EC50, by convention in mol/L) with DLD-1 parent cells was below 4.52; in the assay on NCI-H1373 cells, 7.76. Moreover, the “maximum tumor growth inhibition (TGIMax)” value is given as 46% in the assay on MC-38 (Ker) tumors (Dose A), 77% with MC-38 (Ker) tumors (Dose B), 98% in the assay with MC-38 (Ker) tumors (Dose C) and 99% in the assay on MC-38 (Ker) tumors (Dose D).
